Paper PMC12259978 (Scientific Reports, 2025)

Tests used:
tyrosinase [1] = biological target: T1, tyrosinase (Agaricus bisporus, UniProt C7FF04); test: Enzyme kinetic study; assay type: biochemical
tyrosinase [2] = biological target: T1, tyrosinase; test: Tyrosinase inhibitory assay; assay type: biochemical; conditions: read-out: % inhibition of tyrosinase

T1 sequence (C7FF04 whole entry): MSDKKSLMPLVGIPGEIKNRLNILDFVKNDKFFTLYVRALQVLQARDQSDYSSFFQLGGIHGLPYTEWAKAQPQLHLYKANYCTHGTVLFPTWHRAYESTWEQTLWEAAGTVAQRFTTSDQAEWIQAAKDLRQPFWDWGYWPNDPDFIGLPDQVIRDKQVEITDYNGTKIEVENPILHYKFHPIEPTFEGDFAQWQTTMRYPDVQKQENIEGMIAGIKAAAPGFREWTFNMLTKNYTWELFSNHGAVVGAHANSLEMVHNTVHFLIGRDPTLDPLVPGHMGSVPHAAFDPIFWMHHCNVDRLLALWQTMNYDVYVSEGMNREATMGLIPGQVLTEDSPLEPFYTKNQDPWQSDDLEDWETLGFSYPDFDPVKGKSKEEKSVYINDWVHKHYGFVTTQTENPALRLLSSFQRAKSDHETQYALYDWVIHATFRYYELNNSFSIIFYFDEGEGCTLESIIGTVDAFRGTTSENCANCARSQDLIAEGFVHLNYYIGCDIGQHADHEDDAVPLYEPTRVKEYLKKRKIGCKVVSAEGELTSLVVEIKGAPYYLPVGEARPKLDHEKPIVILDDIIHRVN

| Ki (tyrosinase [1]) [µM] | type of inhibition (tyrosinase [1]; Lineweaver-Burk plot, Vmax unchanged, Km increased) | inhibition at 50 µM (tyrosinase [2]) [%] | Structure (SMILES) |
| --- | --- | --- | --- |
| 9.06 | competitive inhibitor | 86.6 | O=C(CSc1nc2ccccc2cc1C=Nn1c(S)nnc1-c1ccccc1)NCCc1ccccc1 [12j, 2-((3-(((3-Mercapto-5-phenyl-4H-1,2,4-triazol-4-yl)imino)methyl)quinolin-2-yl)thio)-N-phenethylacetamide] |
|  |  | 55.7 | O=C(CSc1nc2ccccc2cc1C=Nn1c(S)nnc1-c1ccccc1)Nc1ccccc1Cl [12b, N-(2-chlorophenyl)-2-((3-(((3-mercapto-5-phenyl-4H-1,2,4-triazol-4-yl)imino)methyl)quinolin-2-yl)thio)acetamide] |
|  |  | 46 | Cc1ccccc1NC(=O)CSc1nc2ccccc2cc1C=Nn1c(S)nnc1-c1ccccc1 [12h, 2-((3-(((3-Mercapto-5-phenyl-4H-1,2,4-triazol-4-yl)imino)methyl)quinolin-2-yl)thio)-N-(o-tolyl)acetamide] |
|  |  | 32.2 | O=C(CSc1nc2ccccc2cc1C=Nn1c(S)nnc1-c1ccccc1)Nc1ccccc1 [12a, 2-((3-(((3-mercapto-5-phenyl-4H-1,2,4-triazol-4-yl)imino)methyl)quinolin-2-yl)thio)-N-phenylacetamide] |
|  |  | 66 | O=C(CSc1nc2ccccc2cc1C=Nn1c(S)nnc1-c1ccccc1)Nc1ccc(Cl)cc1 [12d, N-(4-chlorophenyl)-2-((3-(((3-mercapto-5-phenyl-4H-1,2,4-triazol-4-yl)imino)methyl)quinolin-2-yl)thio)acetamide] |

Further lines, the molecule ahead of its results:

| Structure (SMILES) | Ki (tyrosinase [1]) [µM] | type of inhibition (tyrosinase [1]; Lineweaver-Burk plot, Vmax unchanged, Km increased) | inhibition at 50 µM (tyrosinase [2]) [%] |
| --- | --- | --- | --- |
| COc1ccc(NC(=O)CSc2nc3ccccc3cc2C=Nn2c(S)nnc2-c2ccccc2)cc1 [12f, 2-((3-(((3-Mercapto-5-phenyl-4H-1,2,4-triazol-4-yl)imino)methyl)quinolin-2-yl)thio)-N-(4-methoxyphenyl)acetamide] |  |  | 40.9 |
| Cc1ccc(NC(=O)CSc2nc3ccccc3cc2C=Nn2c(S)nnc2-c2ccccc2)cc1 [12g, 2-((3-(((3-Mercapto-5-phenyl-4H-1,2,4-triazol-4-yl)imino)methyl)quinolin-2-yl)thio)-N-(p-tolyl)acetamide] |  |  | 51.4 |
| Cc1cccc(NC(=O)CSc2nc3ccccc3cc2C=Nn2c(S)nnc2-c2ccccc2)c1C [12i, N-(2,3-dimethylphenyl)-2-((3-(((3-mercapto-5-phenyl-4H-1,2,4-triazol-4-yl)imino)methyl)quinolin-2-yl)thio)acetamide] |  |  | 43.8 |
| O=C(CSc1nc2ccccc2cc1C=Nn1c(S)nnc1-c1ccccc1)Nc1ccc(Cl)cc1Cl [12e, N-(2,4-dichlorophenyl)-2-((3-(((3-mercapto-5-phenyl-4H-1,2,4-triazol-4-yl)imino)methyl)quinolin-2-yl)thio)acetamide] |  |  | 48.3 |
